{"source": "patent US20230053540A1", "about": "“TREATMENT OF LIVER INJURY” (Massachusetts Institute of Technology, priority 2019, published 2023)", "test_system": "hepatocytes", "assay": "Seq-Well scRNA-Seq of hepatocytes after APAP overdose (signature scores, DEG vs untreated)", "format": "in vivo, mouse", "conditions": "APAP vs. UT"}
{"compound": "CC(=O)Nc1ccc(O)cc1", "note": "[APAP, acetaminophen]", "values": [{"measurement": "Hmgcs2 avg_logFC", "value": 0.3105}, {"measurement": "Hmgcs2 pct.1", "value": 0.974}, {"measurement": "Hmox1 avg_logFC", "value": 0.3298}, {"measurement": "Hmox1 pct.1", "value": 0.108}, {"measurement": "Hnf4a avg_logFC", "value": 0.4538}, {"measurement": "Hnf4a pct.1", "value": 0.876}, {"measurement": "Hp avg_logFC", "value": 0.2604}, {"measurement": "Hp pct.1", "value": 0.998}, {"measurement": "Hrg avg_logFC", "value": 0.321}, {"measurement": "Hrg pct.1", "value": 0.88}, {"measurement": "Hsd3b5 avg_logFC", "value": "−0.4712"}, {"measurement": "Hsd3b5 pct.1", "value": 0.367}, {"measurement": "Hsd17b13 avg_logFC", "value": 0.4437}, {"measurement": "Hsd17b13 pct.1", "value": 0.798}, {"measurement": "Hspa5 avg_logFC", "value": 0.4048}, {"measurement": "Hspa5 pct.1", "value": 0.971}, {"measurement": "Hyou1 avg_logFC", "value": 0.3658}, {"measurement": "Hyou1 pct.1", "value": 0.561}, {"measurement": "Igfbp4 avg_logFC", "value": 0.3148}, {"measurement": "Igfbp4 pct.1", "value": 0.919}, {"measurement": "Iigp1 avg_logFC", "value": 0.3448}, {"measurement": "Iigp1 pct.1", "value": 0.851}, {"measurement": "Il1r1 avg_logFC", "value": 0.3633}, {"measurement": "Il1r1 pct.1", "value": 0.39}, {"measurement": "Insig1 avg_logFC", "value": 0.2541}, {"measurement": "Insig1 pct.1", "value": 0.597}, {"measurement": "Itih2 avg_logFC", "value": 0.2682}, {"measurement": "Itih2 pct.1", "value": 0.942}, {"measurement": "Kif1b avg_logFC", "value": 0.264}, {"measurement": "Kif1b pct.1", "value": 0.629}, {"measurement": "Krt18 avg_logFC", "value": 0.3307}, {"measurement": "Krt18 pct.1", "value": 0.72}, {"measurement": "Lars2 avg_logFC", "value": 1.069}, {"measurement": "Lars2 pct.1", "value": 0.997}, {"measurement": "Lifr avg_logFC", "value": "−0.3532"}, {"measurement": "Lifr pct.1", "value": 0.608}, {"measurement": "Lipa avg_logFC", "value": 0.2577}, {"measurement": "Lipa pct.1", "value": 0.73}, {"measurement": "Lpgat1 avg_logFC", "value": 0.3539}, {"measurement": "Lpgat1 pct.1", "value": 0.693}, {"measurement": "Lpin2 avg_logFC", "value": 0.3984}, {"measurement": "Lpin2 pct.1", "value": 0.79}, {"measurement": "Lrg1 avg_logFC", "value": 0.3478}, {"measurement": "Lrg1 pct.1", "value": 0.861}, {"measurement": "Lrrc58 avg_logFC", "value": 0.2998}, {"measurement": "Lrrc58 pct.1", "value": 0.542}, {"measurement": "Man2a1 avg_logFC", "value": 0.3404}, {"measurement": "Man2a1 pct.1", "value": 0.742}, {"measurement": "Mat1a avg_logFC", "value": 0.75}, {"measurement": "Mat1a pct.1", "value": 0.983}, {"measurement": "Mbnl1 avg_logFC", "value": 0.251}, {"measurement": "Mbnl1 pct.1", "value": 0.511}, {"measurement": "Mfsd2a avg_logFC", "value": 0.4484}, {"measurement": "Mfsd2a pct.1", "value": 0.413}, {"measurement": "Mia3 avg_logFC", "value": 0.2557}, {"measurement": "Mia3 pct.1", "value": 0.749}, {"measurement": "Mt1 avg_logFC", "value": 0.8909}, {"measurement": "Mt1 pct.1", "value": 0.701}, {"measurement": "Mt2 avg_logFC", "value": 0.6697}, {"measurement": "Mt2 pct.1", "value": 0.518}, {"measurement": "Mup3 avg_logFC", "value": "−0.5425"}, {"measurement": "Mup3 pct.1", "value": 0.999}, {"measurement": "Mup4 avg_logFC", "value": "−1.001"}, {"measurement": "Mup4 pct.1", "value": 0.716}, {"measurement": "Mup5 avg_logFC", "value": "−1.342"}, {"measurement": "Mup5 pct.1", "value": 0.541}, {"measurement": "Mup6 avg_logFC", "value": "−1.882"}, {"measurement": "Mup6 pct.1", "value": 0.804}, {"measurement": "Mup7 avg_logFC", "value": "−0.6015"}, {"measurement": "Mup7 pct.1", "value": 0.937}, {"measurement": "Mup8 avg_logFC", "value": "−0.7268"}, {"measurement": "Mup8 pct.1", "value": 0.13}, {"measurement": "Mup9 avg_logFC", "value": "−1.914"}, {"measurement": "Mup9 pct.1", "value": 0.594}, {"measurement": "Mup11 avg_logFC", "value": "−1.728"}, {"measurement": "Mup11 pct.1", "value": 0.84}, {"measurement": "Mup12 avg_logFC", "value": "−0.3713"}, {"measurement": "Mup12 pct.1", "value": 0.665}, {"measurement": "Mup15 avg_logFC", "value": "−1.26"}, {"measurement": "Mup15 pct.1", "value": 0.166}, {"measurement": "Mup16 avg_logFC", "value": "−1.125"}, {"measurement": "Mup16 pct.1", "value": 0.594}, {"measurement": "Mup17 avg_logFC", "value": "−2.017"}, {"measurement": "Mup17 pct.1", "value": 0.947}, {"measurement": "Mup18 avg_logFC", "value": "−1.639"}, {"measurement": "Mup18 pct.1", "value": 0.838}, {"measurement": "Mup19 avg_logFC", "value": "−1.786"}, {"measurement": "Mup19 pct.1", "value": 0.916}, {"measurement": "Mup21 avg_logFC", "value": "−0.8723"}, {"measurement": "Mup21 pct.1", "value": 0.702}, {"measurement": "Myh9 avg_logFC", "value": 0.4507}, {"measurement": "Myh9 pct.1", "value": 0.531}, {"measurement": "Ndrg2 avg_logFC", "value": 0.2845}, {"measurement": "Ndrg2 pct.1", "value": 0.956}, {"measurement": "Ndufa4 avg_logFC", "value": "−0.2617"}, {"measurement": "Ndufa4 pct.1", "value": 0.851}, {"measurement": "Ndufs6 avg_logFC", "value": "−0.2721"}, {"measurement": "Ndufs6 pct.1", "value": 0.678}, {"measurement": "Nudt7 avg_logFC", "value": "−0.6192"}, {"measurement": "Nudt7 pct.1", "value": 0.691}, {"measurement": "P4hb avg_logFC", "value": 0.2586}, {"measurement": "P4hb pct.1", "value": 0.958}, {"measurement": "Pabpc1 avg_logFC", "value": 0.3735}, {"measurement": "Pabpc1 pct.1", "value": 0.75}, {"measurement": "Picalm avg_logFC", "value": 0.2666}, {"measurement": "Picalm pct.1", "value": 0.558}, {"measurement": "Pigr avg_logFC", "value": 0.2747}, {"measurement": "Pigr pct.1", "value": 0.952}, {"measurement": "Plin2 avg_logFC", "value": 0.3714}, {"measurement": "Plin2 pct.1", "value": 0.799}, {"measurement": "Prdx1 avg_logFC", "value": "−0.3499"}, {"measurement": "Prdx1 pct.1", "value": 0.878}, {"measurement": "Prdx4 avg_logFC", "value": "−0.2905"}, {"measurement": "Prdx4 pct.1", "value": 0.55}, {"measurement": "Pten avg_logFC", "value": 0.265}, {"measurement": "Pten pct.1", "value": 0.645}, {"measurement": "Ranbp2 avg_logFC", "value": 0.2567}, {"measurement": "Ranbp2 pct.1", "value": 0.555}, {"measurement": "Reep6 avg_logFC", "value": 0.2892}, {"measurement": "Reep6 pct.1", "value": 0.837}, {"measurement": "Retsat avg_logFC", "value": 0.4126}, {"measurement": "Retsat pct.1", "value": 0.87}, {"measurement": "Rora avg_logFC", "value": 0.2853}, {"measurement": "Rora pct.1", "value": 0.547}, {"measurement": "Rpl36al avg_logFC", "value": "−0.2702"}, {"measurement": "Rpl36al pct.1", "value": 0.495}, {"measurement": "Rps15 avg_logFC", "value": "−0.2722"}, {"measurement": "Rps15 pct.1", "value": 0.49}, {"measurement": "S100a9 avg_logFC", "value": 0.3176}, {"measurement": "S100a9 pct.1", "value": 0.058}, {"measurement": "Sdhc avg_logFC", "value": 0.2605}, {"measurement": "Sdhc pct.1", "value": 0.738}, {"measurement": "Sec61a1 avg_logFC", "value": 0.2648}, {"measurement": "Sec61a1 pct.1", "value": 0.642}, {"measurement": "Selenbp2 avg_logFC", "value": "−0.8304"}, {"measurement": "Selenbp2 pct.1", "value": 0.751}, {"measurement": "Sephs2 avg_logFC", "value": 0.4286}, {"measurement": "Sephs2 pct.1", "value": 0.865}, {"measurement": "Sepp1 avg_logFC", "value": 0.3455}, {"measurement": "Sepp1 pct.1", "value": 1}, {"measurement": "Serpina1a avg_logFC", "value": "−0.3347"}, {"measurement": "Serpina1a pct.1", "value": 0.96}, {"measurement": "Serpina1e avg_logFC", "value": "−0.4681"}, {"measurement": "Serpina1e pct.1", "value": 0.99}, {"measurement": "Serpina3m avg_logFC", "value": 0.4597}, {"measurement": "Serpina3m pct.1", "value": 0.836}, {"measurement": "Serpina3n avg_logFC", "value": 0.4496}, {"measurement": "Serpina3n pct.1", "value": 0.76}, {"measurement": "Serpina12 avg_logFC", "value": "−0.279"}, {"measurement": "Serpina12 pct.1", "value": 0.362}, {"measurement": "Sfxn1 avg_logFC", "value": 0.2624}, {"measurement": "Sfxn1 pct.1", "value": 0.636}, {"measurement": "Sh3glb1 avg_logFC", "value": 0.2521}, {"measurement": "Sh3glb1 pct.1", "value": 0.47}, {"measurement": "Slc4a4 avg_logFC", "value": 0.2827}, {"measurement": "Slc4a4 pct.1", "value": 0.558}, {"measurement": "Slc25a47 avg_logFC", "value": 0.3096}, {"measurement": "Slc25a47 pct.1", "value": 0.927}, {"measurement": "Slc39a14 avg_logFC", "value": 0.356}, {"measurement": "Slc39a14 pct.1", "value": 0.552}, {"measurement": "Slc40a1 avg_logFC", "value": 0.2768}, {"measurement": "Slc40a1 pct.1", "value": 0.517}, {"measurement": "Slco1a4 avg_logFC", "value": 0.3826}, {"measurement": "Slco1a4 pct.1", "value": 0.484}, {"measurement": "Snord118 avg_logFC", "value": 0.4707}, {"measurement": "Snord118 pct.1", "value": 0.531}, {"measurement": "Srxn1 avg_logFC", "value": 0.564}, {"measurement": "Srxn1 pct.1", "value": 0.369}, {"measurement": "Ssr3 avg_logFC", "value": 0.2529}, {"measurement": "Ssr3 pct.1", "value": 0.732}, {"measurement": "St3gal5 avg_logFC", "value": 0.3876}, {"measurement": "St3gal5 pct.1", "value": 0.695}, {"measurement": "Sult1a1 avg_logFC", "value": 0.3652}, {"measurement": "Sult1a1 pct.1", "value": 0.799}, {"measurement": "Tgoln1 avg_logFC", "value": 0.2677}, {"measurement": "Tgoln1 pct.1", "value": 0.713}, {"measurement": "Tm4sf4 avg_logFC", "value": 0.276}, {"measurement": "Tm4sf4 pct.1", "value": 0.493}, {"measurement": "Tmed5 avg_logFC", "value": 0.3027}, {"measurement": "Tmed5 pct.1", "value": 0.689}, {"measurement": "Tmem205 avg_logFC", "value": "−0.2953"}, {"measurement": "Tmem205 pct.1", "value": 0.877}, {"measurement": "Tnfrsf12a avg_logFC", "value": 0.2588}, {"measurement": "Tnfrsf12a pct.1", "value": 0.193}, {"measurement": "Trp53inp1 avg_logFC", "value": 0.3977}, {"measurement": "Trp53inp1 pct.1", "value": 0.526}, {"measurement": "Ttpa avg_logFC", "value": 0.3932}, {"measurement": "Ttpa pct.1", "value": 0.916}, {"measurement": "Txnrd1 pct.1", "value": 0.64}, {"measurement": "Uroc1 avg_logFC", "value": 0.3135}, {"measurement": "Uroc1 pct.1", "value": 0.74}, {"measurement": "Usp9x avg_logFC", "value": 0.2541}, {"measurement": "Usp9x pct.1", "value": 0.503}, {"measurement": "Wbp1l avg_logFC", "value": 0.3662}, {"measurement": "Wbp1l pct.1", "value": 0.768}, {"measurement": "Zfp91 avg_logFC", "value": 0.2619}, {"measurement": "Zfp91 pct.1", "value": 0.666}, {"measurement": "mmu-mir-6240 avg_logFC", "value": 0.3395}, {"measurement": "mmu-mir-6240 pct.1", "value": 0.22}, {"measurement": "mt-Co1 avg_logFC", "value": "−0.9219"}, {"measurement": "mt-Co1 pct.1", "value": 0.977}, {"measurement": "mt-Co2 avg_logFC", "value": "−1.078"}]}
